# Counter-ions that a name gives are not always drawn.
# Molecular target: T1, Sigma-1 receptor (Cavia porcellus, UniProt Q60492)
# T1 construct: guinea pig brains were homogenized; from tissue; host or cells: guinea pig brain membranes
# Assay: Sigma-1 receptor binding assay, [3H](+)-pentazocine displacement in brain membranes
# Settings: 2.5 h, compound at 10^−7 M; [3H](+)-pentazocine 0.5 nM; guinea pig brain membranes; non-specific binding defined by 1 μM haloperidol; read-out: Percent Replacement Sigma-1 receptor [10^−7 M]
# Method: Some representative compounds of the invention were tested for their activity as sigma (sigma-1) inhibitors. The following protocol was followed:
# Brain membrane preparation and binding assays for the σ1-receptor were performed as described (DeHaven-Hudkins et al., 1992, Eur. J. Pharmacol. 227, 371-378.) with some modifications. In brief, guinea pig brains were homogenized in 10 vols. (w/v) of Tris-HCl 50 mM 0.32 M sucrose, pH 7.4, with a Kinematica Polytron PT 3000 at 15000 r.p.m. for 30 s. The homogenate was centrifuged at 1000g for 10 min at 4° C. and the supematants collected and centrifuged again at 48000 g for 15 min at 4° C. The pellet was resuspended in 10 volumes of Tris-HCl buffer (50 mM, pH 7.4), incubated at 37° C. for 30 min, and centrifuged at 48000 g for 20 min at 4° C. Following this, the pellet was resuspended in fresh Tris-HCl buffer (50 mM, pH 7.4) and stored on ice until use.
# Each assay tube contained 10 μL of [^3H](+)-pentazocine (final concentration of 0.5 nM), 900 μL of the tissue suspension to a final assay volume of 1 mL and a final tissue concentration of approximately 30 mg tissue net weight/mL. Non-specific binding was defined by addition of a final concentration of 1 μM haloperidol. All tubes were incubated at 37° C. for 150 min before termination of the reaction by rapid filtration over Schleicher & Schuell GF 3362 glass fibre filters [previously soaked in a solution of 0.5% polyethylenimine for at least 1 h]. Filters were then washed with four times with 4 mL of cold Tris-HCl buffer (50 mM, pH 7.4). Following addition of scintillation cocktail, the samples were allowed to equilibrate overnight. The amount of bound radioactivity was determined by liquid scintillation spectrometry using a Wallac Winspectral 1414 liquid scintillation counter. Protein concentrations were determined by the method of Lowry et al. (1951; J. Biol. Chem, 193, 265.).
# T1 sequence (Q60492 whole entry): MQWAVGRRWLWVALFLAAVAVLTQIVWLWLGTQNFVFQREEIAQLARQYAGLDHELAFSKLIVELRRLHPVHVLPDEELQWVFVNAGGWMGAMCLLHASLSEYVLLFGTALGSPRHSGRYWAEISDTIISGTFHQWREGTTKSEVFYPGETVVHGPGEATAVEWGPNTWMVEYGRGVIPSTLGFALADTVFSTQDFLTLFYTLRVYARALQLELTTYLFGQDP
row,Compound,inhibition at 0.1 µM [%]
1,"CC(=O)O[C@@H]1CN(Cc2ccccc2)C[C@H]1N1CCN(S(=O)(=O)c2ccccc2-c2ccccc2)CC1 (relative stereo) [Example 27, trans 1-Benzyl-4-(4-(2-phenyl-phenylsulfonyl)piperazin-1-yl)pyrrolidin-3-yl acetate]",24.7
2,"O[C@@H]1CN(Cc2ccccc2)C[C@H]1N1CCc2ccccc2C1 [Example 1, (3,4-trans)-1-benzyl-4-(3,4-dihydroisoquinolin-2(1H)-yl)pyrrolidine-3-ol]",84.9
3,"O[C@@H]1CN(Cc2ccccc2)C[C@H]1N1CCC(CN2CCc3ccccc3C2)CC1 [Example 5, (3,4-trans)-1-benzyl-4-(4-((3,4-dihydrolsoquinolin-2(1H)-yl)methyl)piperidin-1-yl)pyrrolidine-3-ol]",63.5
4,"O[C@@H]1CN(Cc2ccccc2)C[C@H]1NCCCN1CCc2ccccc2C1 [Example 9, (3,4-trans)-1-benzyl-4-(3-(3,4-dihydroisoquinolin-2(1H)-yl)propylamino)pyrrolidine-3-ol]",38.6
5,"COc1ccnc(N2CCN([C@@H]3CN(Cc4ccccc4)C[C@H]3O)CC2)n1 [Example 10, (3,4-trans)-1-benzyl-4-(4-(4-methoxypyrimidin-2-yl)piperazin-1-yl)pyrrolidine-3-ol]",77.8
6,"O[C@@H]1CN(Cc2ccccc2)C[C@H]1N1CCc2cccc3c2C1CC3 (stereo partly drawn) [Example 11, (3,4-trans)-1-benzyl-4-(2,3,8,8a-tetrahydrocyclopenta[ij]isoquinolin-1(7H)-yl)pyrrolidine-3-ol]",81.1
7,"CC(C)(C)OC(=O)N1CCN([C@@H]2CN(Cc3ccccc3)C[C@H]2O)CC1 [Example 12, tert-butyl-4-((3,4-trans)-1-benzyl-4-hydroxypyrrolidine-3-yl)piperazine-1-carboxylate]",96.5
8,"C[C@@H](c1ccccc1)N1C[C@@H](O)[C@H](N2CCc3ccccc3C2)C1 [Example 16, (3,4-trans)-4-(3,4-dihydroisoquinolin-2(1H)-yl)-1((S)-1-phenylethyl)pyrrolidine-3-ol]",49.9
9,CC(=O)O[C@@H]1CN(Cc2ccccc2)C[C@H]1N1CCN(C(=O)OC(C)(C)C)CC1 [Example 24],73
10,"O[C@@H]1CN(Cc2ccccc2)C[C@H]1Nc1ccccc1 [Example 29, (3,4-trans)-1-benzyl-4-(phenylamino)pyrrolidin-3-ol]",39.3
11,"CCCCCCCCN[C@@H]1CN(Cc2ccccc2)C[C@H]1O [Example 31, (3R,4R)-1-benzyl-4-(octylamino)pyrrolidin-3-ol]",89.9

# Results, then the molecule that gave them:
row,inhibition at 0.1 µM [%],Compound
1,59.1,"COc1ccc(CN[C@@H]2CN(Cc3ccccc3)C[C@H]2O)cc1 [Example 32, (3,4-trans)-1-benzyl-4-(4-methoxybenzylamino)pyrrolidin-3-ol]"
2,65.4,"COc1ccc(N[C@@H]2CN(Cc3ccccc3)C[C@H]2O)cc1 [Example 37, (3R,4R)-1-benzyl-4-(4-methoxyphenylamino)pyrrolidin-3-ol]"
3,55.9,"COC(=O)c1ccc(N[C@@H]2CN(Cc3ccccc3)C[C@H]2O)cc1 [Example 38, Methyl 4-((3,4-trans)-1-benzyl-4-hydroxypyrrolidin-3-ylamino)benzoate]"
4,92.4,"CC(=O)O[C@@H]1CN(Cc2ccccc2)C[C@H]1N1CCN(S(=O)(=O)c2ccccc2Cl)CC1 [Example 52, (3R,4R)-1-benzyl-4(4-(2-chlorophenylsulfonyl)piperazin-1-yl)pyrrolidin-3-yl acetate]"
5,38,"CC(=O)O[C@@H]1CN(Cc2ccccc2)C[C@H]1N1CCN(S(=O)(=O)c2ccc(C)cc2)CC1 [Example 56, (3,4-trans)-1-benzyl-4-(4-tosylpiperazin-1-yl)pyrrolidin-3-yl acetate dihydrochloride]"

# Same assay, conditions: compound at 10^−7 M; [3H](+)-pentazocine 0.5 nM; guinea pig brain membranes; non-specific binding defined by 1 μM haloperidol
row,Percent Replacement Sigma-1 receptor [10^−7 M] [%],Compound
1,96.5,"O=S(=O)(c1ccccc1F)N1CCN([C@@H]2CN(Cc3ccccc3)C[C@H]2O)CC1 [Example 48, (3R,4R)-1-benzyl-4-(4-(2-fluorophenylsulfonyl)piperazin-1-yl)pyrrolidin-3-ol]"
